We go through one compound from patent US9084805B2, “Sialic acid to support the immune system in the elderly” (Nestec S.A., priority 2008, dated 2015).

Format in all cases: in vivo, C57BL/6J mice
In one experiment the test system is aged mice. As to the kind of experiment: Delayed-type hypersensitivity (DTH) response, ear swelling after KLH elicitation, in aged mice. Conditions: aged mice (19-months old), 0.8 weight-% N-acetylneuraminic acid in AlN-93 diet, vs non-supplemented AlN-93, n=10. The protocol: Specific pathogen-free male C57BL/6J mice (4-weeks old) were purchased from Janvier (France). Mice were housed under conventional circumstances (12 hours light/dark cycle, temperature 22° C., humidity 56%) and received water and semi-synthetic Kliba 3436 diet ad libitum. Until the age of 5 months, mice were maintained at 5 per cage and then they were individually caged. All conditions and handling of the animals were approved by the Nestle and state ethical committees with the agreement of the Swiss Federal Veterinary Advisor. 19-months old mice were randomized into 2 groups of 10 animals and were fed with a semi-synthetic AlN-93 diet either non-supplemented (group control AlN-93, n=10) or supplemented with SiAc (0.8 weight-% N-acetylneuraminic acid in the diet) (group SiAc, n=10). During the 42 days of trial, all mice were allowed to drink and eat ad libitum.
The DTH response was used as an in vivo measure of cellular immunity. […] At 24 hours post-elicitation, and during the following 5 days, both the non-elicited (left ear) and the elicited ears (right ear) were measured. DTH responses (KLH-PBS) were expressed as the magnitude of ear swelling, i.e. the change in ear thickness using the following formula: Δ in ear thickness=[elicited ear (right, KLH) ear sickness−non-elicited (left, PBS) ear sickness], where Δ in ear thickness=[post-elicitation−pre-elicitation ear thickness].

In a further experiment the test system is TGF-β2. The experiment can be described thus: Liver mRNA expression of TGF-β2 in aged mice (TaqMan low density array). Conditions: 0.8 weight-% N-acetylneuraminic acid in diet for 42 days, vs non-supplemented AlN-93, n=8. On the procedure:
(§1) Specific pathogen-free male C57BL/6J mice (4-weeks old) were purchased from Janvier (France). Mice were housed under conventional circumstances (12 hours light/dark cycle, temperature 22° C., humidity 56%) and received water and semi-synthetic Kliba 3436 diet ad libitum. Until the age of 5 months, mice were maintained at 5 per cage and then they were individually caged. All conditions and handling of the animals were approved by the Nestle and state ethical committees with the agreement of the Swiss Federal Veterinary Advisor. […]
(§2) Mice were killed on day 42 of trial. The expression of genes involved in inflammatory processes was determined in the liver of aged mice that were supplemented or not with SiAc for 42 days. […]
(§3) Liver samples were transferred into 1 ml of RNA lysis buffer (Macherey-Nagel, Düren, Germany) and homogenized using Ribolyzer (Hybaid, Waltham, Mass., USA) with the following setting: power at 6 for 20 seconds. […] RNA quantification was achieved using the Ribogreen RNA Quantitation Kit (Molecular Probes; Eugene, Oreg. USA), and RNA quality was assayed using Agilent RNA 6000 Nano LabChip Kit (Agilent Technologies, Palo Alto, USA). […]
On the technique in general: Quantitative PCR measures a nucleic acid by following its amplification.

The subject of the next experiment is HO-1. As to the kind of experiment: Liver mRNA expression of HO-1 in aged mice (TaqMan low density array). Conditions: 0.8 weight-% N-acetylneuraminic acid in diet for 42 days, vs non-supplemented AlN-93, n=8. On the procedure: as §1, §2, §3
Another experiment has as its system SOD2. The experiment can be described thus: Liver mRNA expression of SOD2 in aged mice (TaqMan low density array). The conditions noted are these: 0.8 weight-% N-acetylneuraminic acid in diet for 42 days, vs non-supplemented AlN-93, n=8. The protocol:
as §1, §2, §3

Consider `CC(=O)N[C@H]1[C@H]([C@H](O)[C@H](O)CO)OC(O)(C(=O)O)C[C@@H]1O` (stereo partly shown) [SiAc, N-acetylneuraminic acid], for which the “cell-mediated immune response (DTH response, FIG. 1)” value in the experiment with aged mice is reported as “improved”. Also, in the experiment with TGF-β2, the “expression of gene encoding anti-inflammatory molecule TGF-β2 (FIG. 2)” value is “increased expression”. In addition, the “expression of gene encoding HO-1, defence against oxidative damage (FIG. 2)” value with HO-1 is given as “increased expression”. Besides, in the experiment on SOD2, the “expression of gene encoding SOD2, defence against oxidative damage (FIG. 2)” value was “increased expression”.
